In patent EP0195841A1, “Quinolinecarboxylic acid derivatives and process for their preparation” (KYORIN PHARMACEUTICAL CO., LTD., priority 1985, dated 1986):
In brackets after ≈: the same amount, converted by molar mass.

What was measured:
Experiment in all cases: Antibacterial spectra, MIC by standard method of Japan Society of Chemotherapy
Format in all cases: cell-based
[1] = tested on: Bacillus subtilis PCI 219; conditions: 10^6 cells/ml
[2] = tested on: Staphylococcus aureus 209 P; conditions: Gram +, 10^6 cells/ml
[3] = tested on: S. aureus IID 670 (Terajima); conditions: 10^6 cells/ml
S. epidermidis IID 866 = conditions: 10^6 cells/ml
[4] = tested on: Streptococcus pyogenes IID 692; conditions: 10^6 cells/ml
[5] = tested on: S. pyogenes IID 689 (S-8); conditions: 10^6 cells/ml
S. faecalis IID 682 = conditions: 10^6 cells/ml
S. pneumoniae 2054 = conditions: Gram +, 10^6 cells/ml
E. coli NIHJ JC-2 = tested on: E. coli NIHJ JC-2
E. coli ATCC 10536 = conditions: 10^6 cells/ml
[6] = tested on: Proteus vulgaris IFO 3167; conditions: Proteus vulgaris IFO 3167, Gram −, 10^6 cells/ml
P. mirabilis IID 994 = conditions: 10^6 cells/ml
P. morganii IID 602 = conditions: 10^6 cells/ml
[7] = tested on: Klebsiella pneumoniae KY 6445; conditions: 10^6 cells/ml
[8] = tested on: Enterobacter cloacae IID 977; conditions: 10^6 cells/ml
[9] = tested on: Citrobacter freundii IID 976; conditions: 10^6 cells/ml
[10] = tested on: Serratia marcescens IID 618; conditions: 10^6 cells/ml
Shigella sonnei IID 969 = conditions: 10^6 cells/ml
Description: Experiment 1. Antibacterial spectra
Antibacterial activity was determined with the standard method recommended by Japan Society of Chemotherapy.

[11] = tested on: Salmonella enteritidis IID 604; conditions: Gram −, 10^6 cells/ml
[12] = tested on: Pseudomonas aeruginosa V-1; conditions: 10^6 cells/ml
[13] = tested on: Pseudomonas aeruginosa IFO 12689; conditions: 10^6 cells/ml
[14] = tested on: Yersinia enterocolitica IID 981; conditions: 10^6 cells/ml
[15] = tested on: Acinetobacter anitratus IID 876; conditions: 10^6 cells/ml
[16] = tested on: Alcaligenes faecalis 0104002; conditions: Gram −, 10^6 cells/ml, read-out: Minimum Inhibitory Concentration
[17] = tested on: Bacteroides fragilis GM 7000; conditions: 10^6 cells/ml
[18] = tested on: Bacteroides fragilis 0558; conditions: Gram −, 10^6 cells/ml, read-out: Minimum Inhibitory Concentration
[19] = tested on: Bacteroides fragilis 25285; conditions: Gram −, 10^6 cells/ml
[20] = read-out: Minimum Inhibitory Concentration

For CN1CCN(c2c(F)cc3c(=O)c(C(=O)O)cn(C4CC4)c3c2F)CC1 [Reference- 2, 1-Cyclopropyl-6,8-difluoro-1,4-dihydro-7-(4-methyl-1-piperazinyl)-4-oxoquinoline-3-carboxylic acid, reference compound], the “ratio of activity per that of Ciprofloxacin (bracketed number)” value ([1]; Gram +) was 1, the MIC ([1]; PCI219, Gram +, read-out: Minimum Inhibitory Concentration) was 0.05 µg/mL (≈ 0.138 µM) and the “ratio of activity per that of Ciprofloxacin (bracketed number)” value [2] was 4. The MIC [2, 20] was 0.1 µg/mL (≈ 0.275 µM), the “ratio of activity per that of Ciprofloxacin (bracketed number)” value ([3]; Gram +) was 2 and the MIC ([3]; Staphylococcus aureus, IID670, Gram +, read-out: Minimum Inhibitory Concentration) was 0.2 µg/mL (≈ 0.55 µM). For the same compound, the “ratio of activity per that of Ciprofloxacin (bracketed number)” value (S. epidermidis IID 866; Gram +) was 2, the MIC (S. epidermidis IID 866; Staphylococcus epidermidis, IID866, Gram +, read-out: Minimum Inhibitory Concentration) was 0.2 µg/mL (≈ 0.55 µM) and the “ratio of activity per that of Ciprofloxacin (bracketed number)” value ([4]; Gram +) was 1. For the same compound, the MIC ([4]; IID692, Gram +, read-out: Minimum Inhibitory Concentration) was 0.78 µg/mL (≈ 2.15 µM), the “ratio of activity per that of Ciprofloxacin (bracketed number)” value ([5]; Gram +) was 0.5 and the MIC ([5]; Streptococcus pyogenes, IID689, Gram +, read-out: Minimum Inhibitory Concentration) was 0.78 µg/mL (≈ 2.15 µM). For the same compound, the MIC (S. faecalis IID 682; Enterococcus faecalis, IID682, Gram +, read-out: Minimum Inhibitory Concentration) was 0.78 µg/mL (≈ 2.15 µM), the “ratio of activity per that of Ciprofloxacin (bracketed number)” value (S. faecalis IID 682; Gram +) was 1 and the “ratio of activity per that of Ciprofloxacin (bracketed number)” value (S. pneumoniae 2054) was 2. The MIC (S. pneumoniae 2054; Streptococcus pneumoniae, read-out: Minimum Inhibitory Concentration) was 0.78 µg/mL (≈ 2.15 µM), the “ratio of activity per that of Ciprofloxacin (bracketed number)” value (E. coli NIHJ JC-2; E. coli NIHJ JC-2, Gram −, 10^6 cells/ml) was 0.5 and the MIC (E. coli NIHJ JC-2; Escherichia coli, NIHJJC2, read-out: Minimum Inhibitory Concentration) was 0.0125 µg/mL (≈ 0.0344 µM). For the same compound, the MIC (E. coli ATCC 10536; Escherichia coli, ATCC10536, Gram −, read-out: Minimum Inhibitory Concentration) was 0.0125 µg/mL (≈ 0.0344 µM), the “ratio of activity per that of Ciprofloxacin (bracketed number)” value (E. coli ATCC 10536; Gram −) was 1 and the MIC ([6]; IFO3167, read-out: Minimum Inhibitory Concentration) was 0.025 µg/mL (≈ 0.0688 µM). The “ratio of activity per that of Ciprofloxacin (bracketed number)” value [6] was 0.25, the “ratio of activity per that of Ciprofloxacin (bracketed number)” value (P. mirabilis IID 994; Gram −) was 0.5 and the MIC (P. mirabilis IID 994; Proteus mirabilis, IID994, Gram −, read-out: Minimum Inhibitory Concentration) was 0.025 µg/mL (≈ 0.0688 µM). For the same compound, the “ratio of activity per that of Ciprofloxacin (bracketed number)” value (P. morganii IID 602; Gram −) was 1, the MIC (P. morganii IID 602; Morganella morganii, IID602, Gram −, read-out: Minimum Inhibitory Concentration) was 0.05 µg/mL (≈ 0.138 µM) and the “ratio of activity per that of Ciprofloxacin (bracketed number)” value ([7]; Gram −) was 1. For the same compound, the MIC ([7]; KY6445, Gram −, read-out: Minimum Inhibitory Concentration) was 0.0125 µg/mL (≈ 0.0344 µM), the “ratio of activity per that of Ciprofloxacin (bracketed number)” value ([8]; Gram −) was 1 and the MIC ([8]; IID977, Gram −, read-out: Minimum Inhibitory Concentration) was 0.05 µg/mL (≈ 0.138 µM). For the same compound, the “ratio of activity per that of Ciprofloxacin (bracketed number)” value ([9]; Gram −) was 0.25, the MIC ([9]; IID976, Gram −, read-out: Minimum Inhibitory Concentration) was 0.025 µg/mL (≈ 0.0688 µM) and the “ratio of activity per that of Ciprofloxacin (bracketed number)” value ([10]; Gram −) was 1. The MIC ([10]; IID618, Gram −, read-out: Minimum Inhibitory Concentration) was 0.39 µg/mL (≈ 1.07 µM), the “ratio of activity per that of Ciprofloxacin (bracketed number)” value (Shigella sonnei IID 969; Gram −) was 0.5 and the MIC (Shigella sonnei IID 969; IID969, Gram −, read-out: Minimum Inhibitory Concentration) was 0.0125 µg/mL (≈ 0.0344 µM). The “ratio of activity per that of Ciprofloxacin (bracketed number)” value [11] was 0.5, the MIC ([11]; Salmonella enterica, read-out: Minimum Inhibitory Concentration) was 0.05 µg/mL (≈ 0.138 µM) and the “ratio of activity per that of Ciprofloxacin (bracketed number)” value ([12]; Gram −) was 0.5. For the same compound, the MIC ([12]; V1, Gram −, read-out: Minimum Inhibitory Concentration) was 0.39 µg/mL (≈ 1.07 µM), the “ratio of activity per that of Ciprofloxacin (bracketed number)” value ([13]; Gram −) was 1 and the MIC ([13]; IFO12689, Gram −, read-out: Minimum Inhibitory Concentration) was 0.39 µg/mL (≈ 1.07 µM). For the same compound, the “ratio of activity per that of Ciprofloxacin (bracketed number)” value ([14]; Gram −) was 1, the MIC ([14]; IID981, Gram −, read-out: Minimum Inhibitory Concentration) was 0.05 µg/mL (≈ 0.138 µM) and the MIC ([15]; Acinetobacter calcoaceticus, IID876, Gram −, read-out: Minimum Inhibitory Concentration) was 0.0125 µg/mL (≈ 0.0344 µM). For the same compound, the “ratio of activity per that of Ciprofloxacin (bracketed number)” value ([15]; Gram −) was 2, the MIC [16] was 0.02 µg/mL (≈ 0.055 µM) and the MIC ([17]; GM7000, Gram −, read-out: Minimum Inhibitory Concentration) was 0.78 µg/mL (≈ 2.15 µM). The “ratio of activity per that of Ciprofloxacin (bracketed number)” value ([17]; Gram −) was 4, the MIC [18] was 0.39 µg/mL (≈ 1.07 µM) and the “ratio of activity per that of Ciprofloxacin (bracketed number)” value [19] was 8. For the same compound, the MIC [19, 20] was 0.39 µg/mL (≈ 1.07 µM).
